# Measured values from article PMC6062912, “The Evolutionary Conserved γ-Core Motif Influences the Anti-Candida Activity of the Penicillium chrysogenum Antifungal Protein PAF” (Frontiers in Microbiology, 2018).
# Values joined by “and” are separate entries in the source; they are usually repeats but may differ in a detail not shown here. Equal entries are not always repeated. Where two headings read alike, the source gives them in different places. Positions of bridges follow the written chain, without caps; N, C: chain ends. Residues, ends and D or L forms follow the SMILES beside them. *: point of attachment. Acm = CC(=O)NC*
# Assays:
# Assay type in all cases: cell-based, Candida albicans
# C. albicans biofilms = assay: Anti-biofilm activity, FDA fluorescence; details: AMP 0–40 μM for 24 h at 30°C; for concentration inhibiting cell metabolism in biofilm (FDA fluorescence): 24-h-old biofilms; for concentration with anti-biofilm (inhibitory) activity, extinction of FDA fluorescence: 1 h old (young) biofilms
# Procedure: The antifungal activity against C. albicans biofilms was determined in 96-well microtiter plates (Nunclon Delta, Thermo Fisher Scientific). Cells (10^5) in 100 μL 0.05× PDB were distributed per well and plates were incubated at 37°C for up to 24 h to allow biofilm formation. After cell adherence, the microtiter plates were washed once with 0.05× PDB and the test substances were added in increasing concentrations in 100 μL 0.05× PDB per well. H2O2 served as a control for cell killing. The plates were further incubated at 30°C for 24 h. The wells were washed once with 0.05× PDB and 100 μL of FDA solution (40 μg mL^-1 in 0.05× PDB) was added to the wells. Wells containing only FDA solution (40 μg mL^-1 in 0.05× PDB) were used as blank background control. The plates were incubated for 1 h at 37°C in the dark before the fluorescence signal intensity was measured in a multi-mode microplate reader (FLUOstar Omega, BMG Labtech) with excitation and emission wavelengths of 485 and 520 nm. All experiments were prepared at least in duplicates and repeated at least twice.
# Next, we analyzed the potential of the AMPs to inhibit C. albicans biofilm formation. Low susceptibility of biofilms to antifungal agents is often a limiting factor in anti-Candida treatment. To this end, C. albicans cells were distributed in 96-well microtiter plates, allowed to settle down, and to develop biofilms for 1 and 24 h. Then, planktonic cells were washed off and AMPs were added to the biofilms for another 24 h in a concentration range of 0–40 μM. The biofilms were then quantified by adding FDA to the wells. Metabolically active cells convert non-fluorescent FDA into highly fluorescent fluorescein by intracellular enzymatic activity ([Peeters et al., 2008]). The resulting fluorescence signal intensity from AMP-treated biofilms was measured and compared to untreated conditions. […] Twenty-four-hour-old biofilms, however, were resistant against PAF, PAF^var, and PAF^opt in the investigated concentration range (data not shown).
# C. albicans [1] = details: 2 h
# Procedure: Fungistatic or fungicidal activities were determined by incubating C. albicans (10^4 cells mL^-1) in 0.05× PDB with proteins and peptides at 1× MIC and 2× MIC of at 30°C under continuous shaking (800 rpm) in a Thermomixer Comfort (Eppendorf). At defined time points, aliquots were taken and appropriate dilutions were plated on YPD agar in duplicates to promote growth of viable cells. Agar plates were incubated at 37°C for 24 h to count colony forming units (cfu) ([Huber et al., 2018]).
# The determination of the MIC concentration is a well-established, reliable method to elucidate the growth reducing effect of an antifungal compound. […] To gain deeper insight into the antifungal mechanism of the generated protein and peptide variants, we compared them first for their fungicidal potential. In liquid culture C. albicans was exposed to 1× MIC and 2× MIC concentrations of each protein and peptide. After certain time points aliquots were taken and appropriate dilutions were spread on agar plates to allow colony formation of viable cells. The cfu were counted and compared to the untreated control, which was set to be 100%. […] The candidacidal effects were aggravated with higher protein concentrations.
# C. albicans [2] = details: 10 min exposure, mean ± SD, untreated control 1.8 ± 1.2%
# Procedure: (§1) To analyze changes in cell size and to assess kinetics of cell death of C. albicans upon antifungal treatment flow cytometry was applied. For both experiments, 10^4 cells mL^-1 was incubated in 0.05× PDB with the desired AMP concentration for different time points. The incubation was performed in 1.5 mL reaction tubes at 30°C under continuous shaking at 800 rpm in a Thermomixer Comfort (Eppendorf). After incubation, the cells were centrifuged at 4°C with 3,000 ×g for 3 min. For cell size determination, the supernatant was removed and the cells were resuspended and fixed in PBS containing 3.7% (v/v) formaldehyde before changes in cell size were measured by plotting SSC against FSC. C. albicans that were incubated at 95°C for 120 min served as controls. Microscopic control-images were taken with a fluorescence microscope (Axioplan, Zeiss), equipped with a camera (Axiocam 503 mono, Zeiss) and excitation/emission filters (365/420 nm for blue fluorescence and 546/590 or 565/620 nm for red fluorescence, Zeiss). Image acquisition was performed with ZEN 2 microscope software (Zeiss, blue edition) and the cell area was measured with ImageJ 1.52d software ([Schindelin et al., 2012]).
# For dead-cell staining, prior to fixation, the cells were incubated in the dark for 30 min at 4°C with 100 μL PBS containing 0.1 μL LIVE/DEAD^TM Fixable Far Red Dead Cell Stain (Thermo Fisher Scientific). The cells were then washed once in PBS and fixed in PBS containing 3.7% formaldehyde. Ethanol-inactivated dead C. albicans served as a positive staining control. The samples were then analyzed by FACS (FACSVerse Flow Cytometer, BD Biosciences), equipped with BD FACSuite software (v1.0.6.5230, BD Biosciences). Dead cells were detected at Excitation/Emission wavelength of 650/665 nm. Stained, live, and dead Candida cells were used as controls to discriminate populations and to set the gates.
# To elucidate the AMPs candidacidal activities at an early stage and to compare their time and dose-dependent cell killing in more detail, fluorescence activated cell sorting (FACS) analysis with dead-cell staining was applied. To this end, C. albicans was exposed to 1× and 2× MIC of the respective AMPs for 10 min, stained with the dead-cell marker, and fixed with formaldehyde. With FACS analyses, 1.8 ± 1.2% dead cells were detected in the untreated control (Figure 3).
# C. albicans [3] = details: for MIC: 24 h; for antifungal activity of scrambled peptide analog compared with original peptide: compared with Pγ, Pγ^var and Pγ^opt, respectively, data not shown
# Procedure: Fungal strains used in this study are listed in Supplementary Table S1 and composition of growth media is given in Supplementary Table S2. All P. chrysogenum shaking cultures were inoculated with 2 × 10^8 conidia, in 200 mL defined minimal medium (PcMM) for protein expression or complete medium (CM) before transformation, and grown at 25°C as described ([Sonderegger et al., 2016]). For conidial suspension generation from surface cultures, P. chrysogenum was grown on PcMM agar at 25°C. C. albicans was used as PAF-sensitive model organism and was cultivated on yeast extract peptone dextrose (YPD) agar at 37°C. For growth inhibition and susceptibility assays, C. albicans was grown in 20-fold diluted potato dextrose broth (PDB, Sigma-Aldrich) at 30°C, pH 5.5 ([Huber et al., 2018]).
# The MIC of all protein and peptide variants was determined on C. albicans with broth microdilution assays in 96-well microtiter plates (Nunclon Delta, Thermo Fisher Scientific). From a fresh C. albicans overnight culture on YPD agar, cells were harvested with an inoculation loop and suspended in 0.05× PDB (Sigma-Aldrich) ([Arendrup et al., 2016]). The cell number was determined with a counting chamber (Bürker) and the cell number was adjusted to 10^4 mL^-1. In each well, 10^3 cells were incubated with increasing concentrations of antifungal proteins or peptides in a final volume of 200 μL 0.05× PDB. The plates were incubated for 24 h at 30°C before the growth was determined by measuring the optical density (OD620nm) with a multi-mode microplate reader (FLUOstar Omega, BMG Labtech). The MIC was defined as the protein concentration that inhibited growth by ≥90% compared to the untreated control, which was referred as 100% growth.
# C. albicans [4] = assay: Cell size reduction (FSC) by flow cytometry; details: 1× MIC and 2× MIC, 10 and 30 min
# Procedure: as §1
# Cell shrinkage of C. albicans is a sign for cell death when exposed to AMPs ([Lee et al., 2017]). We therefore analyzed the changes in size of AMP-treated C. albicans cells by recording the FSC with flow cytometry. To this end, C. albicans cells were analyzed after 10 and 30 min of exposure to 1× MIC and 2× MIC of AMPs (Figure 5). Heat-killed and untreated C. albicans cells served as positive and negative controls, respectively (Supplementary Figure S8). […] Pγ^var and Pγ^opt caused a very prominent decrease in the FSC value compared to the untreated cell population when applied at 2× MIC. Pγ^var and Pγ^opt reduced the average cell size after a 10-min treatment by 28 ± 13 (P = 0.022) and 18 ± 10% (P = 0.041), respectively, and after 30 min the cell size was reduced by 48 ± 8 (P < 0.001) and 37 ± 12% (P = 0.007), respectively.
# [5] = 1× MIC, 0.05× PDB, 30°C, mean ± SD
compound,measurement,setting,value
CC(=O)N[C@@H](CCCCN)C(=O)N[C@@H](Cc1ccc(O)cc1)C(=O)N[C@H](C(=O)NCC(=O)N[C@@H](CCCCN)C(=O)N[C@@H](CS)C(=O)N[C@H](C(=O)N[C@@H](CCCCN)C(=O)N[C@@H](CO)C(=O)N[C@@H](CCCCN)C(=O)N[C@@H](CC(N)=O)C(=O)N[C@@H](CCC(=O)O)C(=O)N[C@@H](CS)C(=O)N[C@@H](CCCCN)C(N)=O)[C@@H](C)O)[C@@H](C)O [Pγ] (Ac-KYTGKCTKSKNECK-NH2),concentration inhibiting cell metabolism in biofilm (FDA fluorescence),C. albicans biofilms,no impact
same,"concentration with anti-biofilm (inhibitory) activity, extinction of FDA fluorescence",C. albicans biofilms,40 µM
same,Candida cells killed (cfu vs untreated control),C. albicans [1]; [5],no killing effects
same,Candida cells killed (cfu vs untreated control),C. albicans [1]; 2,31 ± 23%
same,"dead cells (cells killed), FACS dead-cell staining",C. albicans [2]; 1× MIC,No significant cell-killing
same,"dead cells (cells killed), FACS dead-cell staining",C. albicans [2]; 2× MIC,No significant cell-killing
same,MIC,C. albicans [3],10.0 µM
same,cell shrinkage,C. albicans [4],did not result in cell shrinkage
CC(=O)N[C@@H](CCCCN)C(=O)N[C@@H](Cc1ccc(O)cc1)C(=O)N[C@H](C(=O)NCC(=O)N[C@@H](CCCCN)C(=O)N[C@H]1CSSC[C@@H](C(=O)N[C@@H](CCCCN)C(N)=O)NC(=O)[C@H](CCC(=O)O)NC(=O)[C@H](CC(N)=O)NC(=O)[C@H](CCCCN)NC(=O)[C@H](CO)NC(=O)[C@H](CCCCN)NC(=O)[C@H]([C@@H](C)O)NC1=O)[C@@H](C)O [Pγ_ox] (Ac-KYTGKCTKSKNECK-NH2; disulfide 6-13),MIC,C. albicans [3],40 µM
CC(=O)NCSC[C@H](NC(=O)[C@H](CCC(=O)O)NC(=O)[C@H](CC(N)=O)NC(=O)[C@H](CCCCN)NC(=O)[C@H](CO)NC(=O)[C@H](CCCCN)NC(=O)[C@@H](NC(=O)[C@H](CSCNC(C)=O)NC(=O)[C@H](CCCCN)NC(=O)CNC(=O)[C@@H](NC(=O)[C@H](Cc1ccc(O)cc1)NC(=O)[C@H](CCCCN)NC(C)=O)[C@@H](C)O)[C@@H](C)O)C(=O)N[C@@H](CCCCN)C(N)=O [Pγ_prot] (Ac-KYTGKC(Acm)TKSKNEC(Acm)K-NH2),MIC,C. albicans [3],40 µM
"CTNKYSCKKGETKK [Pγ_scr, scrambled peptide analog of Pγ]",antifungal activity of scrambled peptide analog compared with original peptide,C. albicans [3],same antifungal activity
Penicillium chrysogenum antifungal protein [PAF],concentration inhibiting cell metabolism in biofilm (FDA fluorescence),C. albicans biofilms,resistant
same,"concentration with anti-biofilm (inhibitory) activity, extinction of FDA fluorescence",C. albicans biofilms,only moderately reduced the metabolic activity
same,Candida cells killed (cfu vs untreated control),C. albicans [1]; [5],no detectable killing activity
same,Candida cells killed (cfu vs untreated control),"C. albicans [1]; 2× MIC, 0.05× PDB, 30°C, mean ± SD",26 ± 6%
same,"dead cells (cells killed), FACS dead-cell staining",C. albicans [2]; 1× MIC,did not cause significant increase
same,"dead cells (cells killed), FACS dead-cell staining",C. albicans [2]; 2× MIC,did not cause significant increase
same,MIC,"C. albicans [3]; 10^3 cells per well in 200 μL 0.05× PDB, 30°C, OD620nm, MIC = concentration inhibiting growth by ≥90% vs untreated control",5 µM and 5.0 µM
same,cell shrinkage,C. albicans [4],did not result in cell shrinkage
"TCKKNKKKKYGKTC [Pγ^opt_scr, scrambled peptide analog of Pγ^opt]",antifungal activity of scrambled peptide analog compared with original peptide,C. albicans [3],same antifungal activity
"TNGKKYKKKEYCCK [Pγ^var_scr, scrambled peptide analog of Pγ^var]",antifungal activity of scrambled peptide analog compared with original peptide,C. albicans [3],same antifungal activity
